Reference: publication PMC9230623, “Design, Synthesis, In Vitro Biological Activity Evaluation and Stabilized Nanostructured Lipid Carrier Formulation of Newly Synthesized Schiff Bases-Based TMP Moieties” (Pharmaceuticals, 2022)

How the values were obtained:
[1] = system: MCF-7 breast cancer cell line; settings: MCF-7 ref 26; cited from earlier work
[2] = system: four human cancer cell lines; set-up: method as in PMID 27149641; settings: four human cancer cell lines ref 21; read-out: IC50 antiproliferative activity; cited from earlier work
[3] = system: mitochondrial membrane potential of MDA-MB-231 cells; assay: Mitochondrial membrane potential by flow cytometry; type: cell-based, human
Protocol: Most of the known anticancer molecules induce apoptotic cascade via activation of the intrinsic pathway via release of cytochrome-c after depolarization of mitochondrial membrane. The potential status of the mitochondrial membrane is determined by the electrochemical gradient (Δψ).
(§1) See Supplementary Materials—Appendix SB.

[4] = system: MDA-MB-231 breast cancer cell line; assay: Cytotoxic assay against MDA-MB-231 breast cancer cell line; type: cell-based; settings: Homo sapiens, MDA-MB-231; mean of three independent replicates ± SE; read-out: IC50 Value (μM) MDA-MB-231
Protocol: The newly prepared Schiff bases 2–5g were screened for their in vitro cytotoxic activity against the MDA-MB-231 breast cancer cell line taking CA-4 as a reference drug. […] In addition, further structure extension to give N-aryl hydrazinyl molecules 4a–5g produced compounds with considerable cytotoxic activity, which may give an indication that the aryl ring is important for cytotoxic activity. […]
Cytotoxic activity of the prepared schiff bases against MDA-MB-231 breast cell Line was determined according previously reported methods. (See Supplementary Materials—Appendix SB).

[5] = system: MDA-MB-231 cells; assay: Annexin V FITC/PI staining apoptosis assay; type: cell-based, human
Protocol: A double staining examination of annexin V FITC/propidium iodide (PI) was used to evaluate compound 4h’s influence on apoptosis and estimate the percentage of the total, early, and late apoptosis in MDA-MB-231 cells. […] Furthermore, the proportion of early and late apoptotic cells rose by 23.12- and 63.67-fold, respectively, as compared to the untreated control cells.
as §1

[6] = system: β-tubulin; assay: Tubulin polymerization inhibitory activity, ELISA assay for β-tubulin; type: cell-based, human; settings: at IC50 (1.27 μM), compared with no treatment control
Protocol: In addition, compound 4h was subjected to in vitro tubulin polymerization inhibitory activity assay using ELISA assay for β-tubulin.
(§2) Compound 4h was evaluated for their Tubulin inhibitory activity according to manufacturer’s instructions.

[7] = system: MDA-MB-231 cells; assay: Cell cycle analysis (FACS, DNA flow cytometry); type: cell-based, human
From the text: For the purpose of studying the influence of these hydrazides on the cell cycle progression of MDA-MB-231 human malignant cell lines. A FACS analysis was used to determine the DNA proportion of cell nuclei.
as §1

[8] = system: normal breast cell line MCF-10A; assay: Cytotoxic assay against normal breast cell line MCF-10A; type: cell-based; settings: Homo sapiens, mean of three independent replicates ± SE, read-out: IC50 Value (μM) MCF-10A
[9] = system: tubulin; assay: Tubulin polymerization inhibition by immunofluorescence analysis (confocal microscope); type: cell-based, human; settings: at its IC50 concentration, MDA-MB-231, compared with untreated cells
Protocol: Several investigations have shown that TMP-containing compounds such as Col and CA-4 interact with tubulin at the colchicine binding site, inhibiting microtubule assembly. The effects of representative Schiff bases on the inhibition of tubulin assembly were evaluated. […] Tubulin polymerization inhibitory activity against the MDA-MB-231 cell line was investigated by immunofluorescence analysis using a confocal microscope.
as §2

[10] = system: tubulin; set-up: method as in PMID 32325332; settings: at its IC50 dose level ref 22; cited from earlier work
[11] = compared to untreated control cells

COc1cc(C(=O)N/N=C/c2cc3ccccc3[nH]2)cc(OC)c1OC [VII]
IC50 [1]: 870 nM

COc1ccc2c(c1)NC(/C=C(\C)C(=O)c1cc(OC)c(OC)c(OC)c1)C2 (stereo not shown) [V]
IC50 [2]: 3 to 9 nM

COc1cc(/C=C(\NC(=O)c2cc(OC)c(OC)c(OC)c2)C(=O)N/N=C/c2cc(Br)c(O)c(Br)c2)cc(OC)c1OC [Compound 4h, N-((Z)-3-((E)-2-(3,5-Dibromo-4-hydroxybenzylidene)hydrazinyl)-3-oxo-1-(3,4,5-trimethoxyphenyl)prop-1-en-2-yl)-3,4,5-trimethoxybenzamide]
reduction in the level of MMPψ ([3]; IC50 concentration, 24 h, in comparison with untreated cells): 65.23%
decrease in the level of MMP ([3]; compared to negative control cells): 3 fold
IC50 [4]: 1.27 ± 0.18 µM
overall apoptosis ([5]; 24 h, no treatment control 1.63%): 31.27%
rise of early apoptotic cells [5, 11]: 23.12 fold
rise of late apoptotic cells [5, 11]: 63.67 fold
percent inhibition of tubulin polymerization [6]: 78.14%
%Pre-G1 ([7]; IC50 concentration, 24 h): 31.27%
%DIP G2/M ([7]; IC50 concentration, 24 h, untreated control 8.22%): 38.65%
cell cycle arrest at G2/M phase relative to control cells ([7]; versus control MDA-MB-231 cells): fivefold
increase in percentage of pre-G1 phase relative to negative control ([7]; versus negative control cells): ~19 fold
IC50 [8]: 30.8 ± 2.32 µM
tubulin polymerization inhibition activity (immunofluorescence) [9]: good tubulin polymerization inhibition activity

COc1cc(C(=O)NNC(=O)c2ccc(NC(=O)CCl)cc2)cc(OC)c1OC [VI]
in vitro tubulin polymerization inhibition activity [10]: 83.1%
